BindingDB's records for PubMed 7969084 (Merck Sharp and Dohme Research Laboratories, 1994)

Molecular target: T1, Cholecystokinin (Sus scrofa, UniProt P01356)
T1 sequence (P01356 whole entry): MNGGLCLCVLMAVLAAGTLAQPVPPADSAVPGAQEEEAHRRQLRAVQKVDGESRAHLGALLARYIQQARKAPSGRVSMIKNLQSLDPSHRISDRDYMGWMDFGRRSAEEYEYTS

Ki: 1.2 nM
Structure (SMILES): Cc1cccc(NC(=O)N[C@@H]2N=C(N3CCCCCC3)c3ccccc3N(C)C2=O)c1 [L-738416]
